Reference: patent US20210221808A1, “3-OXAZOLINONE COMPOUND, PREPARATION METHOD THEREFOR AND PHARMACEUTICAL APPLICATION THEREOF” (Beijing Innocare Pharma Tech Co., Ltd., priority 2018, published 2021)

Key:
[1] = molecular target: T1, indoleamine 2,3-dioxygenase (IDO) activity in Hela cells (Homo sapiens, UniProt P14902); test: IDO Intracellular Activity Inhibition Test (Ehrlich method, IFN-γ induced Hela cells); type: cell-based; settings: IDO activity in Hela cells induced by IFN-γ, 24 hours incubation, OD490
T1 construct: a certain concentration of IFN-γ can induce Hela cells to express IDO; host or cells: HeLa cells induced with IFN-γ
T1 sequence (P14902 whole entry): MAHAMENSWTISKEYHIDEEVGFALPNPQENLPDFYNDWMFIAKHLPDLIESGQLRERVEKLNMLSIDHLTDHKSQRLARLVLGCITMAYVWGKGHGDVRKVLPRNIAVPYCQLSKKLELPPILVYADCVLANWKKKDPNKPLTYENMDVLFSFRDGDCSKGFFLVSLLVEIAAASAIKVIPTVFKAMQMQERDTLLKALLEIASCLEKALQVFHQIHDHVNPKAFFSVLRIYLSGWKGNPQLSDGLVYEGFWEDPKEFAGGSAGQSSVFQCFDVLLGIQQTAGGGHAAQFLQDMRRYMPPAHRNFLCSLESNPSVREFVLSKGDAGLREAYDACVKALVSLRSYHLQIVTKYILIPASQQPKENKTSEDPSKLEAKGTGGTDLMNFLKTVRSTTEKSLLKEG
Procedure: IDO Intracellular Activity Inhibition Test
The effect of the compound of the present invention on the indoleamine 2,3-dioxygenase (IDO) activity in Hela cells induced by IFN-γ was evaluated by the Ehrlich method.
The principle underlined for this experiment is summarized as follows: The expression of IDO in Hela cells is low in the absence of any induction. However, a certain concentration of IFN-γ can induce Hela cells to express IDO, so that it can catalyze the production of N-formylkynurenine from tryptophan. The produced N-formylkynurenine can be hydrolyzed by trichloroacetic acid to kynurenine, then a color reaction of the achieved kynurenine with Ehrlich reagent can be used to detect the activity of IDO. The absorbance at 490 nm (OD490) is in proportion to the activity of IDO.
The compound was dissolved and diluted to 5 mM with DMSO (Sigma, catalog number: D5879), then serially diluted in 3 folds each time with DMSO to a minimum concentration of 2.29 μM. The diluent at each concentration point was further diluted in 50 folds with DMEM medium (ThermoFisher, catalog number: 11995073) free of FBS. If the IC50 value of the compound was very low, the initial concentration of the compound could be lowered. Hela cells (ATCC, catalog number CCL-2) were cultured in DMEM complete medium containing 10% FBS (GBICO, catalog number 10099-141) and 100 U/mL penicillin streptomycin mixture (ThermoFisher, catalog number 15140122). When the cell coverage in the culture vessel reached 80-90%, 0.25% pancreatin (containing EDTA) (ThermoFisher, catalog number 25200056) was used to digest and blow off the cells, and the cells were grown in a 96-well plate (Corning, catalog number 3599), 30,000 cells per well (80 μL DMEM medium). The 96-well plate was then incubated in an incubator (37° C., 5% CO2) overnight (18-20 hours).
10 μL of DMEM diluted compound and 10 μL of 500 ng/mL INF-γ were added to each well, and mixed gently. The 96-well plate was placed into an incubator (37° C., 5% CO2) for further incubation. The mixture was taken out and centrifuged at 2000×g at room temperature for 5 minutes after 24 hours of incubation, the supernatant was transferred to the reaction plate (Sigma, catalog number CLS3695), one-twentieth of trichloroacetic acid (Sigma, product number T9159) was added, and incubated at 60° C. after mixed well. 30 minutes later, the reaction plate was taken out and centrifuged at 2000×g at room temperature for 5 minutes, the supernatant was transferred to a clean reaction plate, equal volume of Ehrlich reagent was added, and the mixture was incubated at room temperature after mixed well. The OD490 of each well was determined 5 minutes later.
In the experiment, OD490 of the DMEM medium control group without IFN-γ was used as OD490100% inhbition; OD490 of the group in which the final concentration of IFN-γ in DMSO was 0.2% was used ads OD4900% inhbition.
The percent inhibition of IDO activity in Hela cells by a compound can be calculated by the following formula: […]
IC50 of a compound was calculated by the following formula using 8 concentration points and XLfit (ID Business Solutions Ltd., UK) software
Y=Bottom+(Top−Bottom)/(1+10^((log IC50−X)*slope factor))
where Y is inhibition percentage. Bottom is the bottom plateau of the S-type curve, Top is the top plateau of the S-type curve, X is the logarithm of the concentration of the tested compound, and slope factor is the slope coefficient of the curve.

plasma IDO activity = molecular target: T2, plasma IDO activity (Mus musculus, UniProt P28776); settings: single administration, blank mice; cited from earlier work
T2 construct: host or cells: mice, in vivo
T2 sequence (P28776 whole entry): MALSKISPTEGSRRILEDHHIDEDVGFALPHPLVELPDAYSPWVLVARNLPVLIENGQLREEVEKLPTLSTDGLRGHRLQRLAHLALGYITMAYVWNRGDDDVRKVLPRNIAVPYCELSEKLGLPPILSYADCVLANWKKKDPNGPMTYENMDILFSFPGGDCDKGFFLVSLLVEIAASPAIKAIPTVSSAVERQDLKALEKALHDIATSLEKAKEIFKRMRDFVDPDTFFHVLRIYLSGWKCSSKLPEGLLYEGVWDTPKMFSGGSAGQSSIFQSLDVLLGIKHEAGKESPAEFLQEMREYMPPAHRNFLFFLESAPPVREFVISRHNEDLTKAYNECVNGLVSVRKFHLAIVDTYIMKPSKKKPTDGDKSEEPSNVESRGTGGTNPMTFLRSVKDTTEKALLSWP

CT26 tumors = settings: repeated administration; cited from earlier work

IC50 [1] [nM] | SMILES | inhibition of plasma IDO activity (plasma IDO activity) | expansion of CT26 tumors (CT26 tumors)
< 50 | C[C@H]([C@H]1CC[C@@H](c2ccnc3ccc(F)cc32)CC1)n1[nH]c2cc(Cl)cnc2c1=O [Compound 8, 6-chloro-2-((R)-1-((1s,4S)-4-(6-fluoroquinolin-4-yl)cyclohexyl)ethyl)-1,2-dihydro-3H-pyrazolo[4,3-b]pyridin-3-one] |  | 
< 50 | C[C@H]([C@H]1CC[C@@H](c2ccnc3ccc(F)cc32)CC1)n1[nH]c2cc(Cl)ccc2c1=O [Compound 6, 6-chloro-2-((R)-1-((1s,4S)-4-(6-fluoroquinolin-4-yl)cyclohexyl)ethyl)-1,2-dihydro-3H-indazol-3-one] |  | 
< 50 | CC([C@H]1CC[C@@H](c2ccnc3ccc(F)cc32)CC1)n1[nH]c2cc(Cl)ccc2c1=O (stereo partly shown) [Compound 4, 6-chloro-2-(1-((1s,4s)-4-(6-fluoroquinolin-4-yl)cyclohexyl)ethyl)-1,2-dihydro-3H-indazol-3-one] |  | 
< 50 | C[C@H]([C@H]1CC[C@@H](c2ccnc3ccc(F)cc32)CC1)n1[nH]c2ncc(Cl)cc2c1=O [Compound 9, 5-chloro-2-((R)-1-((1s,4S)-4-(6-fluoroquinolin-4-yl)cyclohexyl)ethyl)-1,2-dihydro-3H-pyrazolo[3,4-b]pyridin-3-one] |  | 
 | NS(=O)(=O)NCCNc1nonc1C(=NO)Nc1ccc(F)c(Br)c1 [INCB-024360] | effectively inhibit the plasma IDO activity of blank mice to be at the level of IDO-deficient mice | hinders the expansion of CT26 tumors
50 to 200 | CC([C@H]1CC[C@H](c2ccnc3ccc(F)cc32)CC1)n1[nH]c2cc(Cl)ccc2c1=O (stereo partly shown) [Compound 3, 6-chloro-2-(1-((1r,4r)-4-(6-fluoroquinolin-4-yl)cyclohexyl)ethyl)-1,2-dihydro-3H-indazol-3-one] |  | 
< 50 | O=c1c2ccc(Cl)cc2[nH]n1C[C@H]1CC[C@@H](c2ccnc3ccc(F)cc32)CC1 [Compound 2, 6-chloro-2-(((1s,4s)-4-(6-fluoroquinolin-4-yl)cyclohexyl)methyl)-1,2-dihydro-3H-indazol-3-one] |  | 
< 50 | C[C@H]([C@H]1CC[C@@H](c2ccnc3ccc(F)cc32)CC1)n1[nH]c2ccc(Cl)cc2c1=O [Compound 7, 5-chloro-2-((R)-1-((1s,4S)-4-(6-fluoroquinolin-4-yl)cyclohexyl)ethyl)-1,2-dihydro-3H-indazol-3-one] |  | 
50 to 200 | O=c1c2ccc(Cl)cc2[nH]n1C[C@H]1CC[C@H](c2ccnc3ccc(F)cc32)CC1 [Compound 1, 6-chloro-2-(((1r,4r)-4-(6-fluoroquinolin-4-yl)cyclohexyl)methyl)-1,2-dihydro-3H-indazol-3-one] |  | 
< 50 | C[C@H]([C@H]1CC[C@@H](c2ccnc3ccc(F)cc32)CC1)n1[nH]c2cc(Cl)c(Cl)cc2c1=O [Compound 10, 5,6-dichloro-2-((R)-1-((1s,4S)-4-(6-fluoroquinolin-4-yl)cyclohexyl)ethyl)-1,2-dihydro-3H-indazol-3-one] |  | 
< 50 | Cc1cc([C@H]2CC[C@@H]([C@@H](C)n3[nH]c4cc(Cl)ccc4c3=O)CC2)ccn1 [Compound 5, 6-chloro-2-((R)-1-((1s,4S)-4-(2-methylpyridin-4-yl)cyclohexyl)ethyl)-1,2-dihydro-3H-indazol-3-one] |  | 
< 50 | C[C@H]([C@H]1CC[C@@H](c2ccnc3ccc(F)cc32)CC1)n1[nH]c2ccc(Br)cc2c1=O [Compound 11, 5-bromo-2-((R)-1-((1s,4S)-4-(6-fluoroquinolin-4-yl)cyclohexyl)ethyl)-1,2-dihydro-3H-indazol-3-one] |  | 
